Experimental data reported in patent US7566712B2, “Biaryl piperazinyl-pyridine analogues” (Neurogen Corporation, priority 2003, dated 2009).
Each block holds one compound with its values, some of them ahead of it.

Biological target: T1, human capsaicin receptor (Homo sapiens, UniProt Q8NER1)
T1 construct: pBK-CMV expression construct encoding the full length human capsaicin receptor; expressed in transfected cells
Test: Calcium mobilization assay, determination of antagonist activity (Example 6)
Type: cell-based
Conditions: Table II
Procedure, shortened: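 HEK293 clonal lines stably expressing full-length human capsaicin receptor, loaded with Fluo-3 AM in KRH buffer pH 7.4, 1–2 h at 37 °C. Compounds (1–5 μM final) preincubated 0.5–6 h at room temperature, then capsaicin at its EC50 added. FLIPR/Fluoroskan calcium signal; IC50 as 50% decrease of capsaicin response.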

[1] = IC50 determined as described in Example 6 (antagonist activity, calcium mobilization)
[2] = determined as described in Example 6 (antagonist activity), "*" = 1 micromolar or less
[3] = IC50 determined as described in Example 6
[4] = determined as described in Example 6 (calcium mobilization, antagonist activity)

T1 sequence (Q8NER1 whole entry): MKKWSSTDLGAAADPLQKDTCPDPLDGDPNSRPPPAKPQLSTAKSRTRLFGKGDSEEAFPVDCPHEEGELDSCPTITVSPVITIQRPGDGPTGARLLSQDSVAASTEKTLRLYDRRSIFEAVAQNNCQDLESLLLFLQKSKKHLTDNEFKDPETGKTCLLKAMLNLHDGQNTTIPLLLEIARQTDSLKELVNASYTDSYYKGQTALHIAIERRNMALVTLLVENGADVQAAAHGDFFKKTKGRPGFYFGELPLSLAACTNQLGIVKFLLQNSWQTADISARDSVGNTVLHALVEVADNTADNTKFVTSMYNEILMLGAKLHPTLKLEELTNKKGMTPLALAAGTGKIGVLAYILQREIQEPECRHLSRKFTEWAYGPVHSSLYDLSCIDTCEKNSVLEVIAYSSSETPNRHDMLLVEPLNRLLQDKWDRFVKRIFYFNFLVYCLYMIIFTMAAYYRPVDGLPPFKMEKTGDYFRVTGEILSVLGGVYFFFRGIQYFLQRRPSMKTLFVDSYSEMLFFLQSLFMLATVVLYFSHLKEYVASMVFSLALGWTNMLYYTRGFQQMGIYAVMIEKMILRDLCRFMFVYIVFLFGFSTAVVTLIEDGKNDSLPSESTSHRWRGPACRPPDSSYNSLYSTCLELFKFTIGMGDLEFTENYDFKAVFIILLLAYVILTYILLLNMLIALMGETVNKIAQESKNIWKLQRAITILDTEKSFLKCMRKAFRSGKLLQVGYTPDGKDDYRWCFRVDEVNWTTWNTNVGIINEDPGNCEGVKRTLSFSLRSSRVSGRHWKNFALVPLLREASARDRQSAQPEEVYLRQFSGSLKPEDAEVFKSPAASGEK

SMILES: CC(C)c1cccc(-c2cc(N3CCN(c4ncccc4C#N)C[C@H]3C)nc(N3CCOCC3)n2)c1 [Example 499, 2-{(3R)-4-[6-(3-isopropylphenyl)-2-morpholin-4-ylpyrimidin-4-yl]-3-methylpiperazin-1-yl}nicotinonitrile]
IC50 [3]: ≤ 1000 nM

SMILES: COc1ccc(C(C)C)cc1-c1nc(N2CCOCC2)nc(N2CCN(c3ccccn3)CC2)n1 [Example 430, 2-(5-isopropyl-2-methoxyphenyl)-4-morpholin-4-yl-6-(4-pyridin-2-ylpiperazin-1-yl)-1,3,5-triazine]
IC50 [3]: ≤ 1000 nM

SMILES: Cc1cccnc1N1CCN(c2cc(-c3ccc(C)c4ccccc34)nc(N3CCOCC3)n2)[C@H](C)C1 [Example 522, 4-[4-[(2R)-2-methyl-4-(3-methylpyridin-2-yl)piperazin-1-yl]-6-(4-methyl-1-naphthyl)pyrimidin-2-yl]morpholine]
IC50 [3]: ≤ 1000 nM

SMILES: CC1(C)CN(c2nc(-c3ccc(F)c(Cl)c3)cc(N3CCN(c4ncccc4C(F)(F)F)CC3)n2)CCO1 [Example 636, 4-(4-(3-chloro-4-fluorophenyl)-6-{4-[3-(trifluoromethyl)pyridin-2-yl]piperazin-1-yl}pyrimidin-2-yl)-2,2-dimethylmorpholine]
IC50 [4]: ≤ 1000 nM

SMILES: C[C@@H]1CN(c2ncccc2C#N)CCN1c1cc(-c2ccc(C(C)(C)C)cc2)nc(N2CCOCC2)n1 [Example 518, 2-{(3R)-4-[6-(4-tert-butylphenyl)-2-morpholin-4-ylpyrimidin-4-yl]-3-methylpiperazin-1-yl}nicotinonitrile]
IC50 [3]: ≤ 1000 nM

SMILES: CCC(=O)N1CCN(c2nc(-c3ccc(F)c(Cl)c3)cc(N3CCN(c4ncccc4C(F)(F)F)CC3)n2)CC1 [Example 626, 4-(3-chloro-4-fluorophenyl)-2-(4-propionylpiperazin-1-yl)-6-{4-[3-(trifluoromethyl)pyridin-2-yl]piperazin-1-yl}pyrimidine]
IC50 [4]: ≤ 1000 nM

SMILES: CS(=O)(=O)N1CCN(c2nc(-c3ccc(F)c(Cl)c3)cc(N3CCN(c4ncccc4C(F)(F)F)CC3)n2)CC1 [Example 572, 4-(3-chloro-4-fluorophenyl)-2-[4-(methylsulfonyl)piperazin-1-yl]-6-{4-[3-(trifluoromethyl)pyridin-2-yl]piperazin-1-yl)pyrimidine]
IC50 [4]: ≤ 1000 nM

SMILES: CC1CCCN1c1nc(-c2cncc(Cl)c2)cc(N2CCN(c3ncccc3Cl)C[C@H]2C)n1 (stereo partly drawn) [Example 807]
IC50 [2]: ≤ 1000 nM

SMILES: Fc1ccc(-c2cc(N3CCN(c4ncccc4C(F)(F)F)CC3)nc(OCC3CCNC3)n2)cc1Cl (stereo not drawn) [Example 560, 4-(3-chloro-4-fluorophenyl)-2-(pyrrolidin-3-ylmethoxy)-6-{4-(3-(trifluoromethyl)pyridin-2-yl]piperazin-1-yl}pyrimidine]
IC50 [3]: ≤ 1000 nM

SMILES: CC(C)c1cccc(-c2cc(N3CCN(c4ncccc4Cl)C[C@H]3C)nc(N3CCOCC3)n2)c1 [Example 502, 4-[4-[(2R)-4-(3-chloropyridin-2-yl)-2-methylpiperazin-1-yl]-6-(3-isopropylphenyl)pyrimidin-2-yl]morpholine]
IC50 [3]: ≤ 1000 nM

SMILES: Fc1ccc(-c2cc(N3CCN(c4ncccc4C(F)(F)F)CC3)nc(O[C@H]3CCOC3)n2)cc1Cl [Example 545, 4-(3-chloro-4-fluorophenyl)-2-[(3S)-tetrahydrofuran-3-yloxy]-6-{4-[3-(trifluoromethyl)pyridin-2-yl]piperazin-1-yl}pyrimidine]
IC50 [3]: ≤ 1000 nM

SMILES: CCN(CC)c1nc(-c2ccc(C)nc2)cc(N2CCN(c3ncccc3C(F)(F)F)CC2)n1 [Example 607, N,N-diethyl-4-(6-methylpyridin-3-yl)-6-{4-[3-(trifluoromethyl)pyridin-2-yl]piperazin-1-yl}pyrimidin-2-amine]
IC50 [4]: ≤ 1000 nM

SMILES: CC(=O)c1nc(-c2ccc(F)c(C)c2)cc(N2CCN(c3ncccc3C(F)(F)F)CC2)n1 [Example 672, 1-(4-(4-fluoro-3-methylphenyl)-6-{4-[3-(trifluoromethyl)pyridin-2-yl]piperazin-1-yl}pyrimidin-2-yl)ethanone]
IC50 [4]: ≤ 1000 nM

SMILES: COc1ccc(-c2cc(N3CCN(c4ncccc4C(F)(F)F)C[C@H]3C)nc(N3CCOCC3)n2)cc1F [Example 541, 4-(4-(3-fluoro-4-methoxyphenyi)-6-{(2R)-2-methyl-4-[3-(trifluoromethyl)pyridin-2-yl]piperazin-1-yl}pyrimidin-2-yl)morpholine]
IC50 [3]: ≤ 1000 nM

SMILES: c1ccc(N2CCN(c3nc(-c4cccc5ccccc45)nc(N4CCOCC4)n3)CC2)nc1 [Example 270, 2-morpholin-4-yl-4-(1-naphthyl)-6-(4-pyridin-2-ylpiperazin-1-yl)-1,3,5-triazine]
IC50 (determined as described in Example 6, class symbol): ≤ 1000 nM

Now from value to compound:

IC50 [1]: ≤ 1000 nM
SMILES: C[C@H]1CN(c2nccnc2Cl)CCN1c1cc(-c2ccc(F)c(Cl)c2)nc(N2CCCC2)n1 [Example 974, 4-(3-chloro-4-fluorophenyl)-6-[(2S)-4-(3-chloropyrazin-2-yl)-2-methylpiperazin-1-yl]-2-pyrrolidin-1-ylpyrimidine]

IC50 [2]: ≤ 1000 nM
SMILES: CC(=O)c1ccc(-c2cc(N3CCN(c4ncccc4Cl)C[C@H]3C)nc(N3CCOCC3)n2)cc1 [Example 858, 1-(4-{6-[(2R)-4-(3-chloropyridin-2-yl)-2-methylpiperazin-1-yl]-2-morpholin-4-ylpyrimidin-4-yl}phenyl)ethanone]

IC50 [1]: ≤ 1000 nM
SMILES: Cc1ccc(-c2cc(N3CCN(c4ncccc4Cl)C[C@H]3C)nc(N3CCCC3)n2)cc1Cl [Example 997, 4-(3-chloro-4-methylphenyl)-6-[(2R)-4-(3-chloropyridin-2-yl)-2-methylpiperazin-1-yl]-2-pyrrolidin-1-ylpyrimidine]

IC50 [2]: ≤ 1000 nM
SMILES: CC(=O)c1cccc(-c2cc(N3CCN(c4ncccc4Cl)C[C@H]3C)nc(N3CCCC3C)n2)c1 (stereo in doubt) [Example 888, 1-{3-[6-[4-(3-chloropyridin-2-yl)-2-methylpiperazin-1-yl]-2-(2-methylpyrrolidin-1-yl)pyrimidin-4-yl]phenyl}ethanone]

IC50 [1]: ≤ 1000 nM
SMILES: CC1CCCN1c1nc(-c2ccc(F)c(Cl)c2)cc(N2CCN(c3ncc(Br)cn3)CC2)n1 (stereo not drawn) [Example 1002, 4-[4-(5-bromopyrimidin-2-yl)piperazin-1-yl]-6-(3-chloro-4-fluorophenyl)-2-(2-methylpyrrolidin-1-yl)pyrimidine]

IC50 [1]: ≤ 1000 nM
SMILES: C[C@@H]1CN(c2ncccc2F)CCN1c1cc(-c2ccc(F)c(Cl)c2)nc(Cl)n1 [Example 983, 2-chloro-4-(3-chloro-4-fluorophenyl)-6-[(2R)-4-(3-fluoropyridin-2-yl)-2-methylpiperazin-1-yl]pyrimidine]

IC50 [2]: ≤ 1000 nM
SMILES: CC1CCCN1c1nc(-c2cccnc2)cc(N2CCN(c3ncccc3Cl)C[C@H]2C)n1 (stereo partly drawn) [Example 882, 4-[4-(3-chloropyridin-2-yl)-2-methylpiperazin-1-yl]-2-(2-methylpyrrolidin-1-yl)-6-pyridin-3-ylpyrimidine]

IC50 [1]: ≤ 1000 nM
SMILES: C[C@@H]1CN(c2ccccc2F)CCN1c1cc(-c2ccc(F)c(Cl)c2)nc(N2CCCC2)n1 [Example 990, 4-(3-chloro-4-fluorophenyl)-6-[(2R)-4-(2-fluorophenyl)-2-methylpiperazin-1-yl]-2-pyrrolidin-1-ylpyrimidine]

IC50 [2]: ≤ 1000 nM
SMILES: C[C@@H]1CN(c2nccnc2Cl)CCN1c1cc(-c2ccc(F)c(Cl)c2)nc(N2CCC[C@H]2C)n1 [Example 942, 4-(3-chloro-4-fluorophenyl)-6-[(2R)-4-(3-chloropyrazin-2-yl)-2-methylpiperazin-1-yl]-2-[(2R)-2-methylpyrrolidin-1-yl]pyrimidine]
